# Results as given in patent publication US20240254143A1, “OREXIN RECEPTOR AGONISTS AND USES THEREOF” (JAZZ PHARMACEUTICALS IRELAND LIMITED, priority 2021, published 2024).
# Target: T1, human recombinant OX2 (hOX2) receptor (Homo sapiens, UniProt O43614)
# T1 construct: host or cells: CHO cells
# T1 sequence (O43614 1-444): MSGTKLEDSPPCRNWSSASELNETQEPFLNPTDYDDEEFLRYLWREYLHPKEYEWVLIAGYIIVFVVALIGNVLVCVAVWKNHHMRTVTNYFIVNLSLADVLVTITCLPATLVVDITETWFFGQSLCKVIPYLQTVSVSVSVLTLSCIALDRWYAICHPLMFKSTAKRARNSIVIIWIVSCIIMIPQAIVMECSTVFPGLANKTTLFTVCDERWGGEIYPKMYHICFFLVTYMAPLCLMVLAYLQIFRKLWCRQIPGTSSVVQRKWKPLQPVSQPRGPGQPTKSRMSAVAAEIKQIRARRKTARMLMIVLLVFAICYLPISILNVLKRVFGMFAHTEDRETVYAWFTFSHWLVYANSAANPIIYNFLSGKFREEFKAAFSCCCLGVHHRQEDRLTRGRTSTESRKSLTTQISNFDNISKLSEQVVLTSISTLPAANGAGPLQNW
# Test: IP-1 accumulation assay (IP-One HTRF) in hOX2-CHO cells
# Assay type: cell-based
# Settings: 60 min at 37° C., mean of at least two independent experiments, read-out: EC50_OX2R Category
# Procedure: Example 94: IP-1 Accumulation Assay
# The accumulation of Inositol-1 Monophosphate (IP-1) was measured using IP-One HTRF® Terbium cryptate based assay (Cisbio) in human recombinant OX1 (hOX1) and at OX2 (hOX2) receptors expressed in CHO cells (DiscoverX) according to the manufacturer's instructions for cells tested in suspension.
# hOX1-CHO and hOX2-CHO cells were seeded into white 384-well plates at a density of 20,000 cells/well in Hank's Balanced Salt Solution (HBSS) containing 20 mM HEPES pH 7.4, 50 mM, LiCl and 0.1% and Bovine Serum Albumin (BSA).
# Compounds of the present disclosure were tested in a 11 points concentration response curve (CRC) serially diluted in neat DMSO at 200 fold concentrations and added by Echo acoustic liquid handling (Labcyte) to the cells (0.5% DMSO final in the assay). After 60 min of incubation at 37° C. detection reagents, IP1-d2 tracer and anti-IP1-cryptate were diluted in lysis buffer according to the manufacturer's descriptions and added to the cells.
# Following 60 mi incubation at room temperature, time-resolved fluorescence (HTRF) was measured at 615 nm and 665 nm by Envision Multilabel reader (Perkin Elmer) and the HTRF ratio (A665/A615×10^4) was calculated.
# The IP-1 accumulation response was expressed as percentage of the maximal OX-A response.
# Curve fitting and EC50 estimations were carried out using a four-parameter logistic model using XLfit Software. Mean data of EC50 are calculated from at least two independent experiments performed in duplicates.
row,SMILES,EC50
1,"CCNC(=O)N1CCC2(COCC(=O)N2)C1CO[C@H]1CC[C@@H](c2ccccc2)CC1 (mixture of isomers) [Example 15, (CIS)-N-ethyl-7-oxo-1-({[(CIS)-4-phenylcyclohexyl]oxy}methyl)-9-oxa-2,6-diazaspiro[4.5]decane-2-carboxamide]",1000 to 10000 nM
2,"O=C1COC[C@@]2(C[C@@H](C(F)F)N(C(=O)[C@H]3C[C@@H](F)C3)[C@H]2Cc2cccc(-c3cc(F)cc(F)c3)c2F)N1 [Example 80, (1S,3S,5S)-3-(difluoromethyl)-2-[(1s,3s)-3-fluorocyclobutanecarbonyl]-1-({2,3′,5′-trifluoro-[1,1′-biphenyl]-3-yl}methyl)-9-oxa-2,6-diazaspiro[4.5]decan-7-one]",100 to 1000 nM
3,"C[C@@H]1C[C@@]2(COCC(=O)N2)[C@H](CO[C@H]2CC[C@@H](c3ccccc3)CC2)N1c1nnnn1C [Example 64, (1R,3R,5S)-3-methyl-2-(1-methyl-1H-1,2,3,4-tetrazol-5-yl)-1-({[(CIS)-4-phenylcyclohexyl]oxy}methyl)-9-oxa-2,6-diazaspiro[4.5]decan-7-one]",< 100 nM
4,"CCNC(=O)N1CCC[C@@]2(COCC(=O)N2)[C@@H]1CO[C@H]1CC[C@@H](c2ccccc2)CC1 (single isomer, unassigned) [Example 3]",< 100 nM
5,"COC(=O)N1CCC[C@@]2(CCOC(=O)N2)[C@@H]1Cc1cccc(-c2ccccc2)c1 (single isomer, unassigned) [Example 21]",> 10000 nM
6,"CCNC(=O)N1CCC[C@@]2(CCOC(=O)N2)[C@@H]1Cc1cccc(-c2ccccc2)c1 (racemic) [Example 24, (CIS)-7-({[1,1′-biphenyl]-3-yl}methyl)-N-ethyl-2-oxo-3-oxa-1,8-diazaspiro[5.5]undecane-8-carboxamide]",1000 to 10000 nM
7,"CCNC(=O)N1CCCC2(COCCS(=O)(=O)N2)C1CO[C@H]1CC[C@@H](c2ccccc2)CC1 (mixture of isomers) [Example 38, rel-(1R,6S)-N-ethyl-8,8-dioxo-1-({[(CIS)-4-phenylcyclohexyl]oxy}methyl)-11-oxa-8λ^6-thia-2,7-diazaspiro[5.6]dodecane-2-carboxamide]",100 to 1000 nM
8,"CCNC(=O)N1CCC[C@]2(COC(F)C(=O)N2)[C@H]1CO[C@H]1CC[C@@H](c2ccccc2)CC1 (single isomer, unassigned) [Example 42]",1000 to 10000 nM
9,"C[C@@H]1C[C@@]2(COCC(=O)N2)[C@H](Cc2cccc(-c3cc(F)cc(F)c3)c2F)N1C(=O)C1CC1F (single isomer, unassigned) [Example 91]",100 to 1000 nM
10,"CCNC(=O)N1CCC[C@]2(COCC(=O)N2)[C@H]1CO[C@H]1CC[C@@H](c2ccccc2)CC1 (single isomer, unassigned) [Example 2]",1000 to 10000 nM
11,"CCNC(=O)N1CCC[C@]2(COC(C)C(=O)N2)[C@H]1CO[C@H]1CC[C@@H](c2ccccc2)CC1 (single isomer, unassigned) [Example 39]",> 10000 nM
12,"CCNC(=O)N1CCC[C@]2(CCOC(=O)N2)[C@H]1Cc1cccc(-c2ccccc2)c1 [Example 26, (6S,7R)-7-({[1,1′-biphenyl]-3-yl}methyl)-N-ethyl-2-oxo-3-oxa-1,8-diazaspiro[5.5]undecane-8-carboxamide]",> 10000 nM
13,"CCNC(=O)N1CCC[C@@]2(COCCC(=O)N2)[C@@H]1CO[C@H]1CC[C@@H](c2ccccc2)CC1 (relative stereo) [Example 55, rel-(1R,6S)-N-ethyl-8-oxo-1-({[(CIS)-4-phenylcyclohexyl]oxy}methyl)-11-oxa-2,7-diazaspiro[5.6]dodecane-2-carboxamide]",< 100 nM
14,"C[C@@H]1C[C@@]2(COCC(=O)N2)[C@H](Cc2cccc(-c3cc(F)cc(F)c3)c2F)N1C(=O)C1CCC1 [Example 81, (1S,3R,5S)-2-cyclobutanecarbonyl-3-methyl-1-({2,3′,5′-trifluoro-[1,1′-biphenyl]-3-yl}methyl)-9-oxa-2,6-diazaspiro[4.5]decan-7-one]",< 100 nM
15,"C[C@@H]1C[C@@]2(COCC(=O)N2)[C@H](Cc2cccc(-c3cc(F)cc(F)c3)c2F)N1C(=O)C1CC1F (single isomer, unassigned) [Example 92]",100 to 1000 nM
16,"CCNC(=O)N1[C@H](C)C[C@@]2(COCC(=O)N2)[C@@H]1Cc1cccc(-c2cc(F)cc(F)c2)c1F [Example 53, (1S,3R,5S)-N-ethyl-3-methyl-7-oxo-1-({2,3′,5′-trifluoro-[1,1′-biphenyl]-3-yl}methyl)-9-oxa-2,6-diazaspiro[4.5]decane-2-carboxamide]",< 100 nM

row,SMILES,EC50
1,"COC(=O)N1CCC[C@@]2(CCOC(=O)N2)[C@H]1Cc1cccc(-c2ccccc2)c1 (single isomer, unassigned) [Example 23]",> 10000 nM
2,"O=C1COCC2(CCCN(C(=O)[C@H]3C[C@@H](F)C3)C2COC2CCN(c3ncc(F)cn3)CC2)N1 (mixture of isomers) [Example 78, rel-(6S,7R)-8-(3-fluorocyclobutanecarbonyl)-7-({[1-(5-fluoropyrimidin-2-yl)piperidin-4-yl]oxy}methyl)-4-oxa-1,8-diazaspiro[5.5]undecan-2-one]",100 to 1000 nM
3,"CCNC(=O)N1CCC[C@@]2(CCOC(=O)N2)[C@H]1Cc1cccc(-c2ccccc2)c1 (racemic) [Example 25, (Trans)-7-({[1,1′-biphenyl]-3-yl}methyl)-N-ethyl-2-oxo-3-oxa-1,8-diazaspiro[5.5]undecane-8-carboxamide]",> 10000 nM
4,"C[C@@H]1C[C@@]2(COCC(=O)N2)[C@H](CO[C@H]2CC[C@@H](c3ccccc3)CC2)N1C(=O)C(C)(C)O [Example 49, (1R,3R,5S)-2-(2-hydroxy-2-methylpropanoyl)-3-methyl-1-({[(CIS)-4-phenylcyclohexyl]oxy}methyl)-9-oxa-2,6-diazaspiro[4.5]decan-7-one]",1000 to 10000 nM
5,"COC(=O)N1CCC[C@]2(CCOC(=O)N2)[C@H]1Cc1cccc(-c2ccccc2)c1 (single isomer, unassigned) [Example 20]",> 10000 nM
6,"COC(=O)N1CCC[C@@]2(COCC(=O)N2)[C@@H]1CO[C@H]1CC[C@@H](c2ccccc2)CC1 (single isomer, unassigned) [Example 6]",100 to 1000 nM
7,"C[C@@H]1C[C@@]2(COCC(=O)N2)[C@H](CO[C@H]2CC[C@@H](c3ccccc3)CC2)N1C(=O)NCC(F)(F)F [Example 62, (1R,3R,5S)-3-methyl-7-oxo-1-({[(CIS)-4-phenylcyclohexyl]oxy}methyl)-N-(2,2,2-trifluoroethyl)-9-oxa-2,6-diazaspiro[4.5]decane-2-carboxamide]",< 100 nM
8,"COCC(=O)N1[C@H](C)C[C@@]2(COCC(=O)N2)[C@@H]1Cc1cccc(-c2cc(F)cc(F)c2)c1F [Example 88, (1S,3R,5S)-2-(2-methoxyacetyl)-3-methyl-1-({2,3′,5′-trifluoro-[1,1′-biphenyl]-3-yl}methyl)-9-oxa-2,6-diazaspiro[4.5]decan-7-one]",1000 to 10000 nM
9,"C[C@@H]1C[C@@]2(COCC(=O)N2)[C@H](Cc2cccc(-c3cc(F)cc(F)c3)c2F)N1C(=O)C1CC1F (single isomer, unassigned) [Example 90]",100 to 1000 nM
10,"CCNC(=O)N1CCC(F)(F)[C@]2(CCOC(=O)N2)[C@H]1CO[C@H]1CC[C@@H](c2ccccc2)CC1 (single isomer, unassigned) [Example 46]",> 10000 nM
11,"C[C@@H]1C[C@@]2(COCC(=O)N2)[C@H](Cc2cccc(-c3cc(F)cc(F)c3)c2F)N1C(=O)OCC(F)F [Example 83, 2,2-difluoroethyl (1S,3R,5S)-3-methyl-7-oxo-1-({2,3′,5′-trifluoro-[1,1′-biphenyl]-3-yl}methyl)-9-oxa-2,6-diazaspiro[4.5]decane-2-carboxylate]",100 to 1000 nM
12,"CCNC(=O)N1CCC[C@@]2(COC(F)C(=O)N2)[C@@H]1CO[C@H]1CC[C@@H](c2ccccc2)CC1 (single isomer, unassigned) [Example 43]",< 100 nM
13,"COC(=O)N1CCCC2(CCOC(=O)N2)C1Cc1cccc(-c2ccccc2)c1 (stereo not shown) [Example 19, Methyl 7-({[1,1′-biphenyl]-3-yl}methyl)-2-oxo-3-oxa-1,8-diazaspiro[5.5]undecane-8-carboxylate]",> 10000 nM
14,"C[C@@H]1C[C@@]2(COCC(=O)N2)[C@H](Cc2cccc(-c3cc(F)cc(F)c3)c2F)N1C(=O)C(C)(C)O [Example 54, (1S,3R,5S)-2-(2-hydroxy-2-methylpropanoyl)-3-methyl-1-({2,3′,5′-trifluoro-[1,1′-biphenyl]-3-yl}methyl)-9-oxa-2,6-diazaspiro[4.5]decan-7-one]",100 to 1000 nM
15,"O=C1COC[C@]2(CCCN(C(=O)C3CC3)[C@@H]2CO[C@H]2CC[C@@H](c3ccccc3)CC2)N1 (single isomer, unassigned) [Example 8]",> 10000 nM
